Assay results: patent US8273754B2, “Substituted 1H-pyrazolo[3,4-D]pyrimidine-6-amine compounds” (ArQule, Inc., priority 2008, dated 2012)
Read-outs that look alike come from different tables or passages of the source. One block for each compound: values may come before it.

Experiments:
cancer cells = experiment: MTS cell growth inhibition assay (72 hours); assay type: cell-based
Summary of the method: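 Growth inhibition read as formazan absorbance at 492 nm after 4 h MTS/PMS, following 72 h compound exposure at 37 °C in 1% FBS DMEM (cells pre-seeded 18 h). IC50 = 50% absorbance reduction; inhibition graded in bands.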

FGFR2 (N549H) = biological target: T1, FGFR2 (N549H) (Homo sapiens, UniProt P21802, N549H); experiment: fluorescent ELISA assay for inhibitors of FGFR2 kinase; assay type: biochemical; conditions: Pyk2 peptide substrate, 60 minutes
T1 construct: purchased Millipore 14-742
T1 sequence (P21802 22-821 N549H): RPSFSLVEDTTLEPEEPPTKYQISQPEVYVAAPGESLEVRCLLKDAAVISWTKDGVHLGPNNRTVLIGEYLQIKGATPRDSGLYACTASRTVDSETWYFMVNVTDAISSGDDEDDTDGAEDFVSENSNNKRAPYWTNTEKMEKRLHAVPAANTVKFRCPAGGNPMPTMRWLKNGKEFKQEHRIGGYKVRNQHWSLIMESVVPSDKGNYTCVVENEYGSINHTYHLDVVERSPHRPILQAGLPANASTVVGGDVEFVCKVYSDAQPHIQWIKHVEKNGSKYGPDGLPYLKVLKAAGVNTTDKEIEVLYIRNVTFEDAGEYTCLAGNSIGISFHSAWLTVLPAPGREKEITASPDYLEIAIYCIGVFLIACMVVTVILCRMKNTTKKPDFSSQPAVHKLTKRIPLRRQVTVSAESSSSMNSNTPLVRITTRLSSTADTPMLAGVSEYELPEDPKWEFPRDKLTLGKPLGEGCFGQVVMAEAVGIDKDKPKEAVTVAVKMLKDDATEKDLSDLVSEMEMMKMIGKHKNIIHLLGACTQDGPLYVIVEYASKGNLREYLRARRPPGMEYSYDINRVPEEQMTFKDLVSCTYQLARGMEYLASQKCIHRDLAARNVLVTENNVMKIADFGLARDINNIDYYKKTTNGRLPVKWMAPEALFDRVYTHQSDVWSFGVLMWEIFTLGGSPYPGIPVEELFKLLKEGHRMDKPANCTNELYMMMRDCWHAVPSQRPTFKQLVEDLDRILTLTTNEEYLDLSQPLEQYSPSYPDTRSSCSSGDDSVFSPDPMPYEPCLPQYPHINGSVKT
Experimental: The enzymatic assays described herein are conducted according to the following procedures from commercially available reagents. In one non-limiting example, a fluorescent ELISA assay is used to identify and characterize inhibitors of FGFR2 kinase as described herein. This heterogeneous assay utilizes a biotinylated peptide with a tyrosine motif as a substrate and an anti-phospho-tyrosine antibody to measure phosphorylation of the substrate. The reaction is initiated by adding the test compound, 37 μM Pyk2 substrate (Midwest Biotech, Cat. #MBT2383), 12.5 μM ATP (Roche, Cat. #11 140 965 001) and 0.5 μM FGFR2 enzyme (Millipore, Cat. #14-742) sequentially to a non-binding polypropylene V-well plate. All reagents are in an assay buffer consisting of: 50 mM Tris-HCL, 0.02 mg/ml BSA, 10 mM MgCl2, 0.1 mM Na3VO4, 1 mM EGTA, 75 μM ATP, 0.01% NP-40, 2 mM DTT and 10% glycerol. The reaction is incubated for 60 minutes. As the reaction proceeds, FGFR2 phosphorylates tyrosines in the peptide. The reaction mixture is then moved to a blocked streptavidin-coated Nunc Maxisorb plate (coated with 100 ng streptavidin from Pierce (Cat. #15-124) per well), allowing for the capture of the biotinylated peptide. Peptides are captured for 30 minutes at room temperature, the phosphorylation of peptides continues during this phase. The reaction is stopped by washing the streptavidin-coated plate 6 times with TBST. Phosphorylated peptide is detected by adding anti-phospho-tyrosine antibody (Cell Signaling, Cat. #9411, diluted 1:3000) to the streptavidin-coated plate. Unbound anti-phospho-tyrosine antibody is removed by washing the streptavidin-coated plate 6 times with TBST. Secondary detection is performed using alkaline phosphatase tagged goat anti-mouse antibody (Pierce, Cat. #31320, diluted 1:4000) for one hour. Unbound secondary antibody is removed by washing the streptavidin-coated plate 6 times with TBST. The fluorescent readout is initiated by adding to the streptavidin-coated plate Promega Attophos substrate (Promega, Cat. #S1000, dilution=6 mg/10 ml), which, when dephosphorylated by alkaline phosphatase, emits a fluorescent signal of 595 nm in wavelength when excited by a signal of 400 nm in wavelength. The reading of the 595 nm signal is done on the Perkin Elmer Envision system. Compounds which prevent FGFR2 from phosphorylating the peptide result in a lower fluorescent signal. The 595 nm fluorescent signal is directly proportional to the activity of FGFR2. Thus, the inhibition of FGFR2 by compounds is monitored by the decrease in the 595 nm fluorescent signal.

[1] = Homo sapiens, DLD-1, 72 h, DLD-1 cells, read-out: DLD-1 MTS 72 hr at 10 μM
[2] = Homo sapiens, KATO III, 72 h, KATO III cells, read-out: KATO III MTS 72 hr at 10 μM
[3] = Homo sapiens, MDA-MB-231, 72 h, MDA-MB-231 cells, read-out: MDA-MB-231 MTS 72 hr at 10 μM
[4] = Homo sapiens, NCI-H1299, 72 h, NCI-H1299 cells, read-out: NCI-H1299 MTS 72 hr at 10 μM
[5] = PaCa-2, 72 h, PACA-2 cells, read-out: PACA-2 MTS 72 hr at 10 μM

IC50 (FGFR2 (N549H)): 880 nM
SMILES: Nc1nc(NC2Cc3ccccc3N(S(=O)(=O)c3ccc(Cl)c(Cl)c3)C2)c2cn[nH]c2n1 (stereo not drawn) [Compound 39, N4-(1-(3,4-dichlorophenylsulfonyl)-1,2,3,4-tetrahydroquinolin-3-yl)-1H-pyrazolo[3,4-d]pyrimidine-4,6-diamine]
inhibition at 10 µM (cancer cells; [1]): < 50%
inhibition at 10 µM (cancer cells; [2]): 50 to 79%
inhibition at 10 µM (cancer cells; [3]): < 50%
inhibition at 10 µM (cancer cells; [4]): < 50%
inhibition at 10 µM (cancer cells; [5]): < 50%

IC50 (FGFR2 (N549H)): > 30000 nM
SMILES: Cc1ccc(-c2ccc(S(=O)(=O)N3CC(Nc4nc(N)nc5[nH]ncc45)Cc4ccccc43)cc2)cc1 (stereo not drawn) [Compound 50, N4-(1-(4′-methylbiphenyl-4-ylsulfonyl)-1,2,3,4-tetrahydroquinolin-3-yl)-1H-pyrazolo[3,4-d]pyrimidine-4,6-diamine]
inhibition at 10 µM (cancer cells; [1]): 50 to 79%
inhibition at 10 µM (cancer cells; [2]): 50 to 79%
inhibition at 10 µM (cancer cells; [3]): < 50%
inhibition at 10 µM (cancer cells; [4]): < 50%
inhibition at 10 µM (cancer cells; [5]): 50 to 79%

IC50 (FGFR2 (N549H)): 17200 nM
SMILES: CC(=O)c1ccc(S(=O)(=O)N2CC(Nc3nc(N)nc4[nH]ncc34)Cc3ccccc32)cc1 (stereo not drawn) [Compound 48, 1-(4-(3-(6-amino-1H-pyrazolo[3,4-d]pyrimidin-4-ylamino)-3,4-dihydroquinolin-1(2H)-ylsulfonyl)phenyl)ethanone]
inhibition at 10 µM (cancer cells; [1]): > 79%
inhibition at 10 µM (cancer cells; [2]): 50 to 79%
inhibition at 10 µM (cancer cells; [3]): > 79%
inhibition at 10 µM (cancer cells; [4]): < 50%
inhibition at 10 µM (cancer cells; [5]): > 79%

IC50 (FGFR2 (N549H)): 3350 nM
SMILES: Nc1nc(NC2Cc3ccccc3N(S(=O)(=O)c3cccc4ccccc34)C2)c2cn[nH]c2n1 (stereo not drawn) [Compound 31, N4-(1-(naphthalen-1-ylsulfonyl)-1,2,3,4-tetrahydroquinolin-3-yl)-1H-pyrazolo[3,4-d]pyrimidine-4,6-diamine]
inhibition at 10 µM (cancer cells; [1]): < 50%
inhibition at 10 µM (cancer cells; [2]): > 79%
inhibition at 10 µM (cancer cells; [3]): < 50%
inhibition at 10 µM (cancer cells; [4]): < 50%
inhibition at 10 µM (cancer cells; [5]): < 50%

IC50 (FGFR2 (N549H)): 340 nM
SMILES: Nc1nc(NC2Cc3ccccc3N(S(=O)(=O)c3ccccc3)C2)c2cn[nH]c2n1 (stereo not drawn) [Compound 25, N4-(1-(phenylsulfonyl)-1,2,3,4-tetrahydroquinolin-3-yl)-1H-pyrazolo[3,4-d]pyrimidine-4,6-diamine]
inhibition at 10 µM (cancer cells; [1]): < 50%
inhibition at 10 µM (cancer cells; [2]): < 50%
inhibition at 10 µM (cancer cells; [3]): < 50%
inhibition at 10 µM (cancer cells; [4]): < 50%
inhibition at 10 µM (cancer cells; [5]): < 50%

IC50 (FGFR2 (N549H)): > 30000 nM
SMILES: CC(C)c1ccc(S(=O)(=O)N2CC(Nc3nc(N)nc4[nH]ncc34)Cc3ccccc32)cc1 (stereo not drawn) [Compound 56, N4-(1-(4-isopropylphenylsulfonyl)-1,2,3,4-tetrahydroquinolin-3-yl)-1H-pyrazolo[3,4-d]pyrimidine-4,6-diamine]
inhibition at 10 µM (cancer cells; [1]): < 50%
inhibition at 10 µM (cancer cells; [2]): < 50%
inhibition at 10 µM (cancer cells; [3]): < 50%
inhibition at 10 µM (cancer cells; [4]): < 50%
inhibition at 10 µM (cancer cells; [5]): < 50%

IC50 (FGFR2 (N549H)): 270 nM
SMILES: Nc1nc(NC2Cc3ccccc3N(S(=O)(=O)c3ccc(F)c(Cl)c3)C2)c2cn[nH]c2n1 (stereo not drawn) [Compound 43, N4-(1-(3-chloro-4-fluorophenylsulfonyl)-1,2,3,4-tetrahydroquinolin-3-yl)-1H-pyrazolo[3,4-d]pyrimidine-4,6-diamine]
inhibition at 10 µM (cancer cells; [1]): > 79%
inhibition at 10 µM (cancer cells; [2]): > 79%
inhibition at 10 µM (cancer cells; [3]): > 79%
inhibition at 10 µM (cancer cells; [4]): > 79%
inhibition at 10 µM (cancer cells; [5]): > 79%

The remaining lines, values behind:

SMILES: Cc1ccccc1CN1CC(Nc2nc(N)nc3[nH]ncc23)Cc2ccccc21 (stereo not drawn) [Compound 129, N4-[1-(2-methylbenzyl)-1,2,3,4-tetrahydroquinolin-3-yl]-1H-pyrazolo[3,4-d]pyrimidine-4,6-diamine]
inhibition at 10 µM (cancer cells; [1]): < 50%
inhibition at 10 µM (cancer cells; [2]): 50 to 79%
inhibition at 10 µM (cancer cells; [3]): < 50%
inhibition at 10 µM (cancer cells; [4]): < 50%
inhibition at 10 µM (cancer cells; [5]): < 50%
IC50 (FGFR2 (N549H)): 16200 nM

SMILES: Nc1nc(NC2Cc3ccccc3N(S(=O)(=O)c3c(F)cccc3F)C2)c2cn[nH]c2n1 (stereo not drawn) [Compound 58, N4-(1-(2,6-difluorophenylsulfonyl)-1,2,3,4-tetrahydroquinolin-3-yl)-1H-pyrazolo[3,4-d]pyrimidine-4,6-diamine]
inhibition at 10 µM (cancer cells; [1]): < 50%
inhibition at 10 µM (cancer cells; [2]): < 50%
inhibition at 10 µM (cancer cells; [3]): < 50%
inhibition at 10 µM (cancer cells; [4]): < 50%
inhibition at 10 µM (cancer cells; [5]): < 50%
IC50 (FGFR2 (N549H)): 13000 nM

SMILES: COc1cccc(CN2CC(Nc3nc(N)nc4[nH]ncc34)Cc3ccccc32)c1 (stereo not drawn) [Compound 127, N4-[1-(3-methoxybenzyl)-1,2,3,4-tetrahydroquinolin-3-yl]-1H-pyrazolo[3,4-d]pyrimidine-4,6-diamine]
inhibition at 10 µM (cancer cells; [1]): < 50%
inhibition at 10 µM (cancer cells; [2]): 50 to 79%
inhibition at 10 µM (cancer cells; [3]): < 50%
inhibition at 10 µM (cancer cells; [4]): < 50%
inhibition at 10 µM (cancer cells; [5]): 50 to 79%
IC50 (FGFR2 (N549H)): 11000 nM

SMILES: Nc1nc(NC2Cc3ccccc3N(Cc3ccc(F)cc3)C2)c2cn[nH]c2n1 (stereo not drawn) [Compound 6, N^4-(1-(4-fluorobenzyl)-1,2,3,4-tetrahydroquinolin-3-yl)-1H-pyrazolo[3,4-d]pyrimidine-4,6-diamine]
inhibition at 10 µM (cancer cells; [1]): > 79%
inhibition at 10 µM (cancer cells; [2]): > 79%
inhibition at 10 µM (cancer cells; [3]): > 79%
inhibition at 10 µM (cancer cells; [4]): > 79%
inhibition at 10 µM (cancer cells; [5]): > 79%
IC50 (FGFR2 (N549H)): 900 nM

SMILES: Cc1noc(C)c1S(=O)(=O)N1CC(Nc2nc(N)nc3[nH]ncc23)Cc2ccccc21 (stereo not drawn) [Compound 15, N4-(1-(3,5-dimethylisoxazol-4-ylsulfonyl)-1,2,3,4-tetrahydroquinolin-3-yl)-1H-pyrazolo[3,4-d]pyrimidine-4,6-diamine]
inhibition at 10 µM (cancer cells; [1]): > 79%
inhibition at 10 µM (cancer cells; [2]): > 79%
inhibition at 10 µM (cancer cells; [3]): > 79%
inhibition at 10 µM (cancer cells; [4]): > 79%
inhibition at 10 µM (cancer cells; [5]): > 79%
IC50 (FGFR2 (N549H)): > 30000 nM

SMILES: Nc1nc(NC2Cc3ccccc3N(S(=O)(=O)c3cccc(F)c3)C2)c2cn[nH]c2n1 (stereo not drawn) [Compound 18, N4-(1-(3-fluorophenylsulfonyl)-1,2,3,4-tetrahydroquinolin-3-yl)-1H-pyrazolo[3,4-d]pyrimidine-4,6-diamine]
inhibition at 10 µM (cancer cells; [1]): < 50%
inhibition at 10 µM (cancer cells; [2]): < 50%
inhibition at 10 µM (cancer cells; [3]): < 50%
inhibition at 10 µM (cancer cells; [4]): < 50%
inhibition at 10 µM (cancer cells; [5]): < 50%
IC50 (FGFR2 (N549H)): 370 nM

SMILES: Nc1nc(NC2Cc3ccccc3N(S(=O)(=O)c3cccc(C(F)(F)F)c3)C2)c2cn[nH]c2n1 (stereo not drawn) [Compound 19, N4-(1-(3-(trifluoromethyl)phenylsulfonyl)-1,2,3,4-tetrahydroquinolin-3-yl)-1H-pyrazolo[3,4-d]pyrimidine-4,6-diamine]
inhibition at 10 µM (cancer cells; [1]): < 50%
inhibition at 10 µM (cancer cells; [2]): < 50%
inhibition at 10 µM (cancer cells; [3]): < 50%
inhibition at 10 µM (cancer cells; [4]): < 50%
inhibition at 10 µM (cancer cells; [5]): < 50%
IC50 (FGFR2 (N549H)): 1180 nM

SMILES: Nc1nc(NC2Cc3ccccc3N(S(=O)(=O)c3cc(F)ccc3F)C2)c2cn[nH]c2n1 (stereo not drawn) [Compound 55, N4-(1-(2,5-difluorophenylsulfonyl)-1,2,3,4-tetrahydroquinolin-3-yl)-1H-pyrazolo[3,4-d]pyrimidine-4,6-diamine]
inhibition at 10 µM (cancer cells; [1]): > 79%
inhibition at 10 µM (cancer cells; [2]): 50 to 79%
inhibition at 10 µM (cancer cells; [3]): 50 to 79%
inhibition at 10 µM (cancer cells; [4]): < 50%
inhibition at 10 µM (cancer cells; [5]): > 79%
IC50 (FGFR2 (N549H)): 190 nM

SMILES: Nc1nc(NC2Cc3ccccc3N(S(=O)(=O)c3ccccc3Cl)C2)c2cn[nH]c2n1 (stereo not drawn) [Compound 52, N4-(1-(2-chlorophenylsulfonyl)-1,2,3,4-tetrahydroquinolin-3-yl)-1H-pyrazolo[3,4-d]pyrimidine-4,6-diamine]
inhibition at 10 µM (cancer cells; [1]): < 50%
inhibition at 10 µM (cancer cells; [2]): < 50%
inhibition at 10 µM (cancer cells; [3]): < 50%
inhibition at 10 µM (cancer cells; [4]): < 50%
inhibition at 10 µM (cancer cells; [5]): < 50%
IC50 (FGFR2 (N549H)): 1200 nM

SMILES: Nc1nc(NC2Cc3ccccc3N(S(=O)(=O)c3cccc4nsnc34)C2)c2cn[nH]c2n1 (stereo not drawn) [Compound 17, N4-(1-(benzo[c][1,2,5]thiadiazol-4-ylsulfonyl)-1,2,3,4-tetrahydroquinolin-3-yl)-1H-pyrazolo[3,4-d]pyrimidine-4,6-diamine]
inhibition at 10 µM (cancer cells; [1]): < 50%
inhibition at 10 µM (cancer cells; [2]): < 50%
inhibition at 10 µM (cancer cells; [3]): < 50%
inhibition at 10 µM (cancer cells; [4]): < 50%
inhibition at 10 µM (cancer cells; [5]): < 50%
IC50 (FGFR2 (N549H)): 15300 nM
